The target of this assay is T1, human LXRβ (AA 153-461) LBD (Homo sapiens, UniProt P55055).
T1 construct: human LXRβ (AA 153-461) LBD plasmid; expressed in transfected cells; host or cells: HEK 293 cells, transient transfection with Fugene 6
T1 sequence (P55055 153-460 limits assumed): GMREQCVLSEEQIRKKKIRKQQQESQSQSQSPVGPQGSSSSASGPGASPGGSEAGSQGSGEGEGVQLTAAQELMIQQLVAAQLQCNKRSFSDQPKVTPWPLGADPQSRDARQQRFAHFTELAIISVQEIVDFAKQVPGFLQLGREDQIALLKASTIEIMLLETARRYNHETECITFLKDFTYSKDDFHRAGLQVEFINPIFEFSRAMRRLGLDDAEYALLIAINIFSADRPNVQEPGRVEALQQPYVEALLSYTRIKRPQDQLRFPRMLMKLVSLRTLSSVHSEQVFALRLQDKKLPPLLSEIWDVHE
Description: Gal4 LXRβ cotransfection assay (LXRβ Gal fusion assay). The conditions noted are these: transiently transfected HEK 293 cells, Gal4-responsive luciferase reporter, compounds 0.01-10 μM, triplicate. Format: cell-based. On the procedure: For transient transfection of HEK 293 cells, 6×10^3 cells are plated into 96-well dishes. Each well is transfected with 25 ng 5×UAS-luciferase reporter (pG5luc) and 25 ng of […] human LXRβ (AA 153-461) LBD plasmid using Fugene 6 reagent (Roche; Indianapolis, Ind.). The chimeric protein is assessed for the ability to transactivate a Gal4-responsive luciferase reporter plasmid in a concentration-responsive manner to compounds (0.01-10 μM). Luciferase activity at each dose concentration is measured in triplicate using standard substrate reagents (BD Biosciences; San Diego, Calif.). Data is expressed as relative light units and are shown below in Table 1.
(Reporter assays use an easily measured gene product as a stand-in for the process of interest.)

In US9981913B2, “Liver X receptor (LXR) modulators” (Ralexar Therapeutics, Inc., priority 2013, dated 2018) one finds EC50 data, which are given here for 16 molecules.

By EC50 is commonly meant the concentration giving half of the maximal effect. The low end stands for higher potency in that assay, the high end for lower potency in that assay. The molecule `C=C(C)c1cc(-c2ccc(-c3cccc(S(C)(=O)=O)c3)cc2)n(CC(=O)O)n1` [Example 14, 2-(5-(3′-(Methylsulfonyl)-[1,1′-biphenyl]-4-yl)-3-(prop-1-en-2-yl)-1H-pyrazol-1-yl)acetic acid] yielded an EC50 of more than 10 µM.

Turning to `CS(=O)(=O)c1cc(-c2ccc(-n3cc(C(F)(F)F)nc3CC(=O)O)cc2)ccc1CO` [Example 4, 2-(1-(4′-(Hydroxymethyl)-3′-(methylsulfonyl)[1,1′-biphenyl]-4-yl)-4-(trifluoromethyl)-1H-imidazol-2-yl)acetic acid], the EC50 was more than 10 µM. Under `C=C(C)c1cc(-c2ccc(-c3cccc(S(C)(=O)=O)c3)cc2)n(CC(=O)OCC)n1` [Example 13, Ethyl 2-(5-(3′-(methylsulfonyl)-[1,1′-biphenyl]-4-yl)-3-(prop-1-en-2-yl)-1H-pyrazol-1-yl)acetate] stands less than 1 µM. Turning to `CCOC(=O)c1cc(-c2ccc(-c3cccc(S(C)(=O)=O)c3)cc2)n(CC(C)C)n1` [Example 5, Ethyl 1-isobutyl-5-(3′-(methylsulfonyl)-[1,1′-biphenyl]-4-yl)-1H-pyrazole-3-carboxylate], the EC50 is less than 1 µM. Then `CCOC(=O)c1cn(-c2ccc(-c3ccc(CO)c(S(C)(=O)=O)c3)cc2)c(CC(C)C)n1` [Example 11, Ethyl 1-(4′-(hydroxymethyl)-3′-(methylsulfonyl)-[1,1′-biphenyl]-4-yl)-2-isobutyl-1H-imidazole-4-carboxylate], with 1 to 10 µM; and `CCOC(=O)Cn1nc(C(C)C)cc1-c1ccc(-c2cccc(S(C)(=O)=O)c2)cc1` [Example 15, Ethyl 2-(3-isopropyl-5-(3′-(methylsulfonyl)-[1,1′-biphenyl]-4-yl)-1H-pyrazol-1-yl)acetate], with 1 to 10 µM; and `CS(=O)(=O)c1cccc(-c2ccc(-n3cc(C(F)(F)F)nc3CC(=O)O)cc2)c1` [Example 2, 2-(1-(3′-(Methylsulfonyl)-[1,1′-biphenyl]-4-yl)-4-(trifluoromethyl)-1H-imidazol-2-yl)acetic acid], with more than 10 µM. Under `CC(C)Cn1nc(C(=O)O)cc1-c1ccc(-c2ccc(CO)c(S(C)(=O)=O)c2)cc1` [Example 8, 5-(4′-(Hydroxymethyl)-3′-(methylsulfonyl)-[1,1′-biphenyl]-4-yl)-1-isobutyl-1H-pyrazole-3-carboxylic acid] stands more than 10 µM; under `CC(C)c1cc(-c2ccc(-c3cccc(S(C)(=O)=O)c3)cc2)n(CC(=O)O)n1` [Example 16, 2-(3-Isopropyl-5-(3′-(methylsulfonyl)-[1,1′-biphenyl]-4-yl)-1H-pyrazol-1-yl)acetic acid], more than 10 µM; under `CCOC(=O)Cc1nc(C(F)(F)F)cn1-c1ccc(-c2ccc(CO)c(S(C)(=O)=O)c2)cc1` [Example 3, Ethyl 2-(1-(4′-(hydroxymethyl)-3′-(methylsulfonyl)-[1,1′-biphenyl]-4-yl)-4-(trifluoromethyl)-1H-imidazol-2-yl)acetate], less than 1 µM.

Molecule `CC(C)Cc1nc(C(=O)O)cn1-c1ccc(-c2cccc(S(C)(=O)=O)c2)cc1` [Example 10, 2-Isobutyl-1-(3′-(methylsulfonyl)-[1,1′-biphenyl]-4-yl)-1H-imidazole-4-carboxylic acid] registered an EC50 of more than 10 µM.

`CCOC(=O)c1cc(-c2ccc(-c3ccc(CO)c(S(C)(=O)=O)c3)cc2)n(CC(C)C)n1` [Example 7, Ethyl 5-(4′-(hydroxymethyl)-3′-(methylsulfonyl)[1,1′-biphenyl]-4-yl)-1-isobutyl-1H-pyrazole-3-carboxylate]: the EC50 lay in the range of 1 to 10 µM. In turn, `CCOC(=O)c1cn(-c2ccc(-c3cccc(S(C)(=O)=O)c3)cc2)c(CC(C)C)n1` [Example 9, Ethyl 2-isobutyl-1-(3′-(methylsulfonyl)-[1,1′-biphenyl]-4-yl)-1H-imidazole-4-carboxylate] registered an EC50 of 1 to 10 µM.

`CC(C)Cn1nc(C(=O)O)cc1-c1ccc(-c2cccc(S(C)(=O)=O)c2)cc1` [Example 6, 1-Isobutyl-5-(3′-(methylsulfonyl)-[1,1′-biphenyl]-4-yl)-1H-pyrazole-3-carboxylic acid]: the EC50 was more than 10 µM. Molecule `CCOC(=O)Cc1nc(C(F)(F)F)cn1-c1ccc(-c2cccc(S(C)(=O)=O)c2)cc1` [Example 1, Ethyl 2-(1-(3′-(methylsulfonyl)-[1,1′-biphenyl]-4-yl)-4-(trifluoromethyl)-1H-imidazol-2-yl)acetate] displayed an EC50 of 1 to 10 µM. As for `CC(C)Cc1nc(C(=O)O)cn1-c1ccc(-c2ccc(CO)c(S(C)(=O)=O)c2)cc1` [Example 12, 1-(4′-(Hydroxymethyl)-3′-(methylsulfonyl)-[1,1′-biphenyl]-4-yl)-2-isobutyl-1H-imidazole-4-carboxylic acid], the EC50 is more than 10 µM.
